Reference: ChEMBL document CHEMBL1140846, “Convenient QSAR model for predicting the complexation of structurally diverse compounds with beta-cyclodextrins” (Bioorg Med Chem, 2009)

Experiment: Binding affinity to beta cyclodextrin

Row | SMILES | log Ks
1 | C[C@]12CCC(=O)C=C1CC[C@@H]1[C@@H]2[C@@H](O)C[C@@]2(C)[C@H]1CC[C@]2(O)C(=O)CO [HYDROCORTISONE] | 3.6
2 | CCC(O)CC [3-PENTANOL] | 1.35
3 | CCCC(C)C1(CC)C(=O)NC(=S)NC1=O (stereo unspecified) [THIOPENTAL] | 3.28
4 | O=[N+]([O-])c1ccc(Cl)cc1 | 2.15
5 | CCOC(=O)c1ccccc1 [ETHYL BENZOATE] | 2.73
6 | CNc1ccccc1 | 2.12
7 | CCC(C)CO (stereo unspecified) | 2.08
8 | CC(=O)Oc1cccc(C#N)c1 | 1.49
9 | CC(=O)c1ccc(S(=O)(=O)NC(=O)NC2CCCCC2)cc1 [ACETOHEXAMIDE] | 2.94
10 | CCC1(CC)C(=O)NC(=O)NC1=O [BARBITAL] | 1.78
11 | CCOc1cccc(O)c1 [1-hydroxy-3-ethoxybenzene] | 2.35
12 | Ic1ccccc1 [IODOBENZENE] | 2.93
13 | c1ccc2c(c1)Sc1ccccc1S2 | 3.57
14 | ClC(Cl)Cl [CHLOROFORM] | 1.43
15 | Nc1ccc([N+](=O)[O-])cc1 [4-NITROANILINE] | 2.48
16 | CCNc1ccccc1 | 2.34
17 | CCOc1ccc(OC(C)=O)cc1 | 2.54
18 | CCCCCc1ccc(OC(C)=O)cc1 | 3.8
19 | CO [METHYL ALCOHOL] | -0.49
20 | CCCC(C)O (stereo unspecified) [2-PENTANOL] | 1.49
21 | CCOc1ccc(O)cc1 [1-hydroxy-4-ethoxybenzene] | 2.33
22 | Oc1cc(Br)cc(Br)c1 | 2.56
23 | CCC(=O)c1ccc(O)cc1 [PAROXYPROPIONE] | 2.63
24 | COC(=O)c1ccccc1 [METHYL BENZOATE] | 2.5

Row | SMILES | log Ks
25 | CCC(C)O (stereo unspecified) [BUTANOL] | 1.19
26 | c1ccc2c(c1)Cc1ccccc1O2 [XANTHENE] | 2.71
27 | O=C(O)CC1CC2CCC1C2 (stereo unspecified) | 3.59
28 | Ic1ccc(I)cc1 | 3.17
29 | CN1CCN=C(c2ccccc2)c2cc(Cl)ccc21 [MEDAZEPAM] | 2.4
30 | CCCCCc1ccc(O)cc1 | 4.19
31 | OCCCCCO [1,5-PENTANEDIOL] | 1.22
32 | COc1ccc(OC(C)=O)cc1 | 2.45
33 | CC(C)CCO [3-METHYLBUTANOL] | 2.25
34 | COC1=CC(=O)C[C@@H](C)[C@]12Oc1c(Cl)c(OC)cc(OC)c1C2=O [GRISEOFULVIN] | 1.47
35 | C[C@]12C=CC(=O)C=C1CC[C@@H]1[C@@H]2[C@@H](O)C[C@@]2(C)[C@H]1CC[C@]2(O)C(=O)CO [PREDNISOLONE] | 3.56
36 | CC(C)Cc1cccc(O)c1 | 4.21
37 | CC(C)CC(C)O (stereo unspecified) | 2.04
38 | Cc1ccc(/C=C/C(=O)O)cc1 | 2.65
39 | CCC1(CCC(C)C)C(=O)NC(=O)NC1=O [AMOBARBITAL] | 3.07
40 | COc1cc(NS(=O)(=O)c2ccc(N)cc2)nc(C)n1 [SULFAMETOMIDINE] | 2.33
41 | Oc1cccc(F)c1 | 1.7
42 | Oc1cccc(Cl)c1 | 2.28
43 | c1ccc2nc3ccccc3cc2c1 [ACRIDINE] | 2.33
44 | CN1C(=O)NC(=O)C(C)(C2=CCCCC2)C1=O (stereo unspecified) [HEXOBARBITAL] | 3.08
45 | CN1C(=O)CN=C(c2ccccc2)c2cc([N+](=O)[O-])ccc21 [NIMETAZEPAM] | 1.73
46 | CC(=O)Oc1ccc(F)cc1 | 2.11
47 | CC(=O)OCC(=O)[C@@]1(O)CC[C@H]2[C@@H]3CCC4=CC(=O)CC[C@]4(C)[C@H]3[C@@H](O)C[C@@]21C [HYDROCORTISONE ACETATE] | 3.51
48 | C[C@@H]1C[C@H]2[C@@H]3C[C@H](F)C4=CC(=O)C=C[C@]4(C)[C@H]3[C@@H](O)C[C@]2(C)[C@@]1(O)C(=O)CO [PARAMETHASONE] | 3.4

Row | SMILES | log Ks
49 | CCCCC(C)O (stereo unspecified) [2-HEXANOL] | 1.98
50 | CCc1cccc(O)c1 | 2.6
51 | ClC(Cl)(Cl)Cl [CARBON TETRACHLORIDE] | 2.2
52 | CC1=CC(=O)c2ccccc2C1=O [MENADIONE] | 2.27
53 | CCOc1ccccc1 [PHENETOLE] | 2.49
54 | CCCCc1cccc(O)c1 | 3.76
55 | CCCCCCCO [1-HEPTANOL] | 2.85
56 | CC(=O)Oc1cccc(Br)c1 | 2.67
57 | Cc1ccc(O)cc1 [p-CRESOL] | 2.4
58 | COc1cc(NS(=O)(=O)c2ccc(N)cc2)ncn1 [SULFAMONOMETHOXINE] | 2.48
59 | Cc1cccc(O)c1 [METACRESOL] | 1.98
60 | CC(=O)S[C@@H]1CC2=CC(=O)CC[C@]2(C)[C@H]2CC[C@@]3(C)[C@@H](CC[C@@]34CCC(=O)O4)[C@H]12 [SPIRONOLACTONE] | 4.44
61 | c1ccccc1 [BENZENE] | 2.23
62 | NC(=O)CCC/N=C(\c1ccc(Cl)cc1)c1cc(F)ccc1O [PROGABIDE] | 2.53
63 | OCc1ccc(O)cc1 [PARAHYDROXYBENZYL ALCOHOL] | 2.16
64 | NS(=O)(=O)c1cc2c(cc1Cl)NCNS2(=O)=O [HYDROCHLOROTHIAZIDE] | 1.76
65 | Oc1ccc(Cl)cc1 [PARACHLOROPHENOL] | 2.61
66 | CCCCc1cccc(OC(C)=O)c1 | 3.66
67 | CCC(C)c1cccc(O)c1 (stereo unspecified) | 4.06
68 | c1ccc2c(c1)Nc1ccccc1O2 [PHENOXAZINE] | 2.69
69 | Nc1ccccc1 [ANILINE] | 1.6
70 | OCCCCO [1,4-BUTANEDIOL] | 0.64
71 | O=C1CN=C(c2ccccc2)c2cc([N+](=O)[O-])ccc2N1 [NITRAZEPAM] | 1.97
72 | C[C@]12CCC(=O)C=C1CC[C@@H]1[C@@H]2C(=O)C[C@@]2(C)[C@H]1CC[C@]2(O)C(=O)CO [CORTISONE] | 3.35

Row | SMILES | log Ks
73 | C(=C\c1ccccc1)/CN1CCN(C(c2ccccc2)c2ccccc2)CC1 [CINNARIZINE] | 3.64
74 | CCCCNC(=O)NS(=O)(=O)c1ccc(N)cc1 [CARBUTAMIDE] | 2.29
75 | CCOc1cccc(OC(C)=O)c1 | 2.49
76 | COc1ccccc1 [ANISOLE] | 2.32
77 | Oc1ccccc1 [PHENOL] | 1.98
78 | OC1CCCC1 [CYCLOPENTANOL] | 2.08
79 | CC#N [ACETONITRILE] | -0.27
80 | C[C@H](CCC(=O)O)[C@H]1CC[C@H]2[C@@H]3C(=O)C[C@@H]4CC(=O)CC[C@]4(C)[C@H]3CC(=O)[C@]12C [DEHYDROCHOLIC ACID] | 3.38
81 | O=C(O)CC12CC3CC(CC(C3)C1)C2 | 4.32
82 | Nc1ccc(-c2ccc(N)cc2)cc1 [BENZIDINE] | 3.35
83 | Oc1cccc(I)c1 | 2.93
84 | O=C(O)c1ccccc1 [BENZOIC ACID] | 2.12
85 | CC(=O)Oc1ccc(C(C)(C)C)cc1 | 3.85
86 | CCC1(c2ccccc2)C(=O)NC(=O)N(C)C1=O (stereo unspecified) [MEPHOBARBITAL] | 3.16
87 | CCCC(=O)O[C@]1(C(=O)CO)CC[C@H]2[C@@H]3CCC4=CC(=O)CC[C@]4(C)[C@H]3[C@@H](O)C[C@@]21C [HYDROCORTISONE BUTYRATE] | 3.23
88 | OCCCCCCO [1,6-HEXANEDIOL] | 1.69
89 | CC(C(=O)O)c1ccc(-c2ccccc2)c(F)c1 (stereo unspecified) [FLURBIPROFEN] | 3.69
90 | c1ccc2scnc2c1 [BENZO[D]THIAZOLE] | 2.38
91 | COc1cc(NS(=O)(=O)c2ccc(N)cc2)nc(OC)n1 [SULFADIMETHOXINE] | 2.26
92 | CCCCCO [1-PENTANOL] | 1.8
93 | CC(=O)Oc1ccc([N+](=O)[O-])cc1 [4-NITROPHENYL ACETATE] | 2.13
94 | CC(C)(C)O [TERT-BUTANOL] | 1.68
95 | CCc1ccc(OC(C)=O)cc1 | 2.83
96 | CCCc1ccc(O)cc1 | 3.55
